# Reference: article PMC5218480 (PLoS ONE, 2017)
# Test system: MV-4-11 cells
# Test: Gene expression microarray analysis (Affymetrix PrimeView) and GSEA
# Type: cell-based, human
# Parameters: RFU PODN (11730768_x_at) / Fold change /veh PODN (11730768_x_at) / RFU LINC00158 (11744669_a_at) / Fold change /veh LINC00158 (11744669_a_at) / RFU DUSP10 (11751237_a_at) / Fold change /veh DUSP10 (11751237_a_at) / RFU ID3 (11757404_x_at) / Fold change /veh ID3 (11757404_x_at) / RFU PLEKHG5 (11737974_s_at) / Fold change /veh PLEKHG5 (11737974_s_at) / RFU LRRC4B (11730491_at) / Fold change /veh LRRC4B (11730491_at) / RFU GIMAP4 (11747438_a_at) / Fold change /veh GIMAP4 (11747438_a_at) / RFU KRT8 (11758183_x_at) / Fold change /veh KRT8 (11758183_x_at) / RFU CNN1 (11734310_a_at) / Fold change /veh CNN1 (11734310_a_at) / RFU VPS37D (11726825_at) / Fold change /veh VPS37D (11726825_at) / RFU C10orf10 (11716522_x_at) / Fold change /veh C10orf10 (11716522_x_at) / RFU KIR2DL2 /// KIR2DL4 /// KIR2DL5A /// KIR2DL5B /// KIR2DS1 /// KIR2DS2 /// KIR2DS3 /// KIR2DS4 /// KIR3DL3 /// KIR3DL3 /// KIR3DS1 (11738374_at) / Fold change /veh KIR2DL2 /// KIR2DL4 /// KIR2DL5A /// KIR2DL5B /// KIR2DS1 /// KIR2DS2 /// KIR2DS3 /// KIR2DS4 /// KIR3DL3 /// KIR3DL3 /// KIR3DS1 (11738374_at) / RFU C1QL1 (11718748_at) / Fold change /veh C1QL1 (11718748_at) / RFU TMPRSS4 (11747572_a_at) / Fold change /veh TMPRSS4 (11747572_a_at) / RFU HAMP (11756126_x_at) / Fold change /veh HAMP (11756126_x_at) / RFU RNFT2 (11725882_a_at) / Fold change /veh RNFT2 (11725882_a_at) / RFU NR4A2 (11747474_a_at) / Fold change /veh NR4A2 (11747474_a_at) / RFU ABCC12 (11746883_a_at) / Fold change /veh ABCC12 (11746883_a_at) / RFU TMEM136 (11760407_x_at) / Fold change /veh TMEM136 (11760407_x_at) / RFU CLDN22 /// WWC2 (11732394_at) / Fold change /veh CLDN22 /// WWC2 (11732394_at) / RFU HLA-DPB1 (11760878_x_at) / Fold change /veh HLA-DPB1 (11760878_x_at) / RFU SPINT1 (11716480_a_at) / Fold change /veh SPINT1 (11716480_a_at) / RFU GAP43 (11754022_s_at) / Fold change /veh GAP43 (11754022_s_at) / RFU A4GNT (11735810_at) / Fold change /veh A4GNT (11735810_at) / RFU PRB3 (11715151_x_at) / Fold change /veh PRB3 (11715151_x_at) / RFU TUBB4B (11761932_at) / Fold change /veh TUBB4B (11761932_at) / RFU CAPN14 (11732068_a_at) / Fold change /veh CAPN14 (11732068_a_at) / RFU TMCC2 (11721928_a_at) / Fold change /veh TMCC2 (11721928_a_at) / RFU IRGQ (11745062_a_at) / Fold change /veh IRGQ (11745062_a_at) / RFU FAM174B (11720279_a_at) / Fold change /veh FAM174B (11720279_a_at) / RFU TMPRSS4 (11748680_a_at) / Fold change /veh TMPRSS4 (11748680_a_at) / RFU FAM212B (11763350_a_at) / Fold change /veh FAM212B (11763350_a_at) / RFU PLEKHG5 (11743358_a_at) / Fold change /veh PLEKHG5 (11743358_a_at) / RFU ZSCAN30 (11745921_a_at) / Fold change /veh ZSCAN30 (11745921_a_at) / RFU CMKLR1 (11741424_a_at) / Fold change /veh CMKLR1 (11741424_a_at) / RFU LOC101060620 /// MAPK8IP1 (11723275_at) / Fold change /veh LOC101060620 /// MAPK8IP1 (11723275_at) / RFU SPTSSB (11747773_x_at) / Fold change /veh SPTSSB (11747773_x_at) / RFU PRSS12 (11739890_at) / Fold change /veh PRSS12 (11739890_at) / RFU BIN1 (11741810_x_at) / Fold change /veh BIN1 (11741810_x_at) / RFU WNT11 (11732464_a_at) / Fold change /veh WNT11 (11732464_a_at) / RFU C10orf10 (11716521_a_at) / Fold change /veh C10orf10 (11716521_a_at) / RFU C5orf56 (11738089_at) / Fold change /veh C5orf56 (11738089_at) / RFU CYB561 (11721691_x_at) / Fold change /veh CYB561 (11721691_x_at) / RFU ANKRD19P (11752326_a_at) / Fold change /veh ANKRD19P (11752326_a_at) / RFU OR2T12 /// OR2T33 /// OR2T8 (11738714_s_at) / Fold change /veh OR2T12 /// OR2T33 /// OR2T8 (11738714_s_at) / RFU VCAN (11748164_a_at) / Fold change /veh VCAN (11748164_a_at) / RFU JSRP1 (11732532_at) / Fold change /veh JSRP1 (11732532_at) / RFU KRTAP10-11 (11738290_x_at) / Fold change /veh KRTAP10-11 (11738290_x_at) / RFU MYO3A (11730013_a_at) / Fold change /veh MYO3A (11730013_a_at) / RFU EBF3 (11725865_a_at) / Fold change /veh EBF3 (11725865_a_at) / RFU CAMK2N1 (11719241_x_at) / Fold change /veh CAMK2N1 (11719241_x_at) / RFU C5orf56 (11738088_a_at) / Fold change /veh C5orf56 (11738088_a_at) / RFU OLFML3 (11715873_a_at) / Fold change /veh OLFML3 (11715873_a_at) / RFU LOC100653217 /// NTM (11731650_a_at) / Fold change /veh LOC100653217 /// NTM (11731650_a_at) / RFU MAPK11 (11762145_a_at) / Fold change /veh MAPK11 (11762145_a_at) / RFU FIZ1 (11724087_x_at) / Fold change /veh FIZ1 (11724087_x_at) / RFU OASL (11726364_x_at) / Fold change /veh OASL (11726364_x_at) / RFU SOX15 (11748057_x_at) / Fold change /veh SOX15 (11748057_x_at) / RFU CD79A (11719716_a_at) / Fold change /veh CD79A (11719716_a_at) / RFU HIST1H1D (11736915_at) / Fold change /veh HIST1H1D (11736915_at) / RFU CASKIN2 (11723855_a_at) / Fold change /veh CASKIN2 (11723855_a_at) / RFU LOC730098 (11760151_x_at) / Fold change /veh LOC730098 (11760151_x_at) / RFU OR4N2 (11742367_at) / Fold change /veh OR4N2 (11742367_at) / RFU PRRT2 (11749266_a_at) / Fold change /veh PRRT2 (11749266_a_at) / RFU SNX32 (11753110_a_at) / Fold change /veh SNX32 (11753110_a_at) / RFU CDHR5 (11726645_a_at) / Fold change /veh CDHR5 (11726645_a_at) / RFU RCAN1 (11760418_a_at) / Fold change /veh RCAN1 (11760418_a_at) / RFU FAM167A (11723789_a_at) / Fold change /veh FAM167A (11723789_a_at) / RFU FAM26E (11764081_at) / Fold change /veh FAM26E (11764081_at) / RFU ISYNA1 (11749810_s_at) / Fold change /veh ISYNA1 (11749810_s_at) / RFU ACY1 (11761880_at) / Fold change /veh ACY1 (11761880_at) / RFU 11764098_at / Fold change /veh 11764098_at / RFU SAMD14 (11745864_x_at) / Fold change /veh SAMD14 (11745864_x_at) / RFU NPB (11741838_a_at) / Fold change /veh NPB (11741838_a_at) / RFU TMPRSS6 (11731388_a_at) / Fold change /veh TMPRSS6 (11731388_a_at) / RFU KRTAP10-2 (11738614_at) / Fold change /veh KRTAP10-2 (11738614_at) / RFU ARHGAP8 /// PRR5-ARHGAP8 (11727945_x_at) / Fold change /veh ARHGAP8 /// PRR5-ARHGAP8 (11727945_x_at) / RFU KRTAP5-7 /// NADSYN1 (11734609_at) / Fold change /veh KRTAP5-7 /// NADSYN1 (11734609_at) / RFU RASL12 (11751679_a_at) / Fold change /veh RASL12 (11751679_a_at) / RFU CDKN2B (11736163_a_at) / Fold change /veh CDKN2B (11736163_a_at) / RFU PRF1 (11729649_at) / Fold change /veh PRF1 (11729649_at) / RFU, ZNF638 /// ZNF638-IT1 / Fold change vs veh, ZNF638 /// ZNF638-IT1 / RFU, PANK3 / Fold change vs veh, PANK3 / RFU, SH3YL1 / Fold change vs veh, SH3YL1 / RFU, ZEB2 / Fold change vs veh, ZEB2 / RFU, NRIP1 / Fold change vs veh, NRIP1 / RFU, PTTG1IP / Fold change vs veh, PTTG1IP / RFU, CAPN2 / Fold change vs veh, CAPN2 / RFU, MED14 / Fold change vs veh, MED14 / RFU, SNORA58 / Fold change vs veh, SNORA58 / RFU, C1orf63 / Fold change vs veh, C1orf63 / RFU, LRRFIP1 / Fold change vs veh, LRRFIP1 / RFU, NDUFAF7 / Fold change vs veh, NDUFAF7 / RFU, SLC12A2 / Fold change vs veh, SLC12A2 / RFU, IBTK / Fold change vs veh, IBTK / RFU, ESF1 / Fold change vs veh, ESF1 / Fold change vs veh, TMEM50B / RFU, TAOK1 / Fold change vs veh, TAOK1 / RFU, ACBD3 / Fold change vs veh, ACBD3 / RFU, TMA16 / Fold change vs veh, TMA16 / RFU, RWDD3 / Fold change vs veh, RWDD3 / RFU, BCAT1 / Fold change vs veh, BCAT1 / RFU, EDEM3 / Fold change vs veh, EDEM3 / RFU, TMEM33 / Fold change vs veh, TMEM33 / RFU, WDR75 / Fold change vs veh, WDR75 / RFU, AHCTF1 / Fold change vs veh, AHCTF1 / RFU, TFRC / Fold change vs veh, TFRC / RFU, ZDHHC17 / Fold change vs veh, ZDHHC17 / RFU, NOM1 / Fold change vs veh, NOM1 / RFU, ARL8B / Fold change vs veh, ARL8B / RFU, ZBTB11 / Fold change vs veh, ZBTB11 / RFU, TAMM41 / Fold change vs veh, TAMM41 / RFU, KIAA1704 /// LOC100996395 / Fold change vs veh, KIAA1704 /// LOC100996395 / RFU, ING1 / Fold change vs veh, ING1 / RFU, TRMT61B / Fold change vs veh, TRMT61B / RFU, FUBP3 / Fold change vs veh, FUBP3 / RFU, TP53 / Fold change vs veh, TP53 / RFU, TNKS2 / Fold change vs veh, TNKS2 / RFU, ZFP14 / Fold change vs veh, ZFP14 / RFU, ACTR2 / Fold change vs veh, ACTR2 / RFU, PPP3R1 / Fold change vs veh, PPP3R1 / RFU, PIK3R1 / Fold change vs veh, PIK3R1 / RFU, HNRNPA1 / Fold change vs veh, HNRNPA1 / RFU, RNF170 / Fold change vs veh, RNF170 / RFU, ZNF28 / Fold change vs veh, ZNF28 / RFU, RNGTT / Fold change vs veh, RNGTT / RFU, OGT / Fold change vs veh, OGT / RFU, BRD1 / Fold change vs veh, BRD1 / RFU, MARS / Fold change vs veh, MARS / RFU, ZNF655 / Fold change vs veh, ZNF655 / RFU, FAHD1 / Fold change vs veh, FAHD1 / RFU, BDP1 / Fold change vs veh, BDP1 / RFU, LRRCC1 / Fold change vs veh, LRRCC1 / RFU, ARID1A / Fold change vs veh, ARID1A / RFU, ZNF146 / Fold change vs veh, ZNF146 / RFU, ZNF330 / Fold change vs veh, ZNF330 / RFU, GPN3 / Fold change vs veh, GPN3 / RFU, C9orf123 / Fold change vs veh, C9orf123 / RFU, N4BP2L2 / Fold change vs veh, N4BP2L2 / RFU, ARFIP1 / Fold change vs veh, ARFIP1 / RFU, FAM179B / Fold change vs veh, FAM179B / RFU, BCL10 / Fold change vs veh, BCL10 / RFU, UHRF1BP1L / Fold change vs veh, UHRF1BP1L / RFU, BET1 / Fold change vs veh, BET1 / RFU, CNOT2 / Fold change vs veh, CNOT2 / RFU, ZNF268 / Fold change vs veh, ZNF268 / Fold change vs veh, ZNF507 / RFU, DGCR2 / Fold change vs veh, DGCR2 / RFU, WDSUB1 / Fold change vs veh, WDSUB1 / Fold change vs veh, HSP90B1 /// MIR3652 / RFU, ADSS / Fold change vs veh, ADSS / RFU, GK / Fold change vs veh, GK / RFU, ZNF148 / Fold change vs veh, ZNF148 / RFU, TAF9 / Fold change vs veh, TAF9 / RFU, SLC1A5 / Fold change vs veh, SLC1A5 / RFU, SLMO2 / Fold change vs veh, SLMO2 / RFU, ABCC4 / Fold change vs veh, ABCC4 / RFU, LOC101060439 /// RAP1B / Fold change vs veh, LOC101060439 /// RAP1B / RFU, RFX7 / Fold change vs veh, RFX7 / RFU, GTPBP10 / Fold change vs veh, GTPBP10 / RFU, CNEP1R1 / Fold change vs veh, CNEP1R1 / RFU, BIVM-ERCC5 /// ERCC5 / Fold change vs veh, BIVM-ERCC5 /// ERCC5 / RFU, ILF3 / Fold change vs veh, ILF3 / RFU 11762660_at / Fold change /veh 11762660_at / RFU VCAN (11757783_s_at) / Fold change /veh VCAN (11757783_s_at) / RFU DDX43 (11728927_at) / Fold change /veh DDX43 (11728927_at) / RFU KRT8 (11758188_x_at) / Fold change /veh KRT8 (11758188_x_at) / RFU NKD1 (11759106_at) / Fold change /veh NKD1 (11759106_at) / RFU SRD5A1 (11742802_a_at) / Fold change /veh SRD5A1 (11742802_a_at) / RFU TPSAB1 /// TPSB2 (11721975_s_at) / Fold change /veh TPSAB1 /// TPSB2 (11721975_s_at) / RFU GSTM3 (11746129_a_at) / Fold change /veh GSTM3 (11746129_a_at) / RFU IL23R (11737362_x_at) / Fold change /veh IL23R (11737362_x_at) / RFU TMEM51 (11727254_a_at) / Fold change /veh TMEM51 (11727254_a_at) / RFU PIWIL2 (11732686_x_at) / Fold change /veh PIWIL2 (11732686_x_at) / RFU ORM1 (11744905_x_at) / Fold change /veh ORM1 (11744905_x_at) / RFU CCDC152 (11743942_at) / Fold change /veh CCDC152 (11743942_at) / RFU ECM1 (11717891_a_at) / Fold change /veh ECM1 (11717891_a_at) / RFU IL23R (11748794_a_at) / Fold change /veh IL23R (11748794_a_at) / RFU TNFAIP8L3 (11732012_x_at) / Fold change /veh TNFAIP8L3 (11732012_x_at) / RFU MBOAT4 (11741988_at) / Fold change /veh MBOAT4 (11741988_at) / RFU 11764193_at / Fold change /veh 11764193_at / RFU TMEM53 (11763286_at) / Fold change /veh TMEM53 (11763286_at) / RFU MAGEB2 (11727129_at) / Fold change /veh MAGEB2 (11727129_at) / RFU TMEM200A (11744735_a_at) / Fold change /veh TMEM200A (11744735_a_at) / RFU CCDC152 (11751479_a_at) / Fold change /veh CCDC152 (11751479_a_at) / RFU FAM211A (11726209_a_at) / Fold change /veh FAM211A (11726209_a_at) / RFU RGS16 (11746705_a_at) / Fold change /veh RGS16 (11746705_a_at) / RFU VCAN (11755009_s_at) / Fold change /veh VCAN (11755009_s_at) / RFU RHOB (11743442_s_at) / Fold change /veh RHOB (11743442_s_at) / RFU RGS16 (11720943_a_at) / Fold change /veh RGS16 (11720943_a_at) / RFU RGS16 (11720944_at) / Fold change /veh RGS16 (11720944_at) / RFU, VPS4B / Fold change vs veh, VPS4B / RFU, CREB1 / Fold change vs veh, CREB1 / RFU, DNAJC13 / Fold change vs veh, DNAJC13 / RFU, GNAQ / Fold change vs veh, GNAQ / RFU, CDK5R1 / Fold change vs veh, CDK5R1 / RFU, ZRANB3 / Fold change vs veh, ZRANB3 / RFU, CUL4A / Fold change vs veh, CUL4A / RFU, CCNY / Fold change vs veh, CCNY / RFU, UFL1 / Fold change vs veh, UFL1 / RFU, COG3 / Fold change vs veh, COG3 / RFU, DIAPH2 / Fold change vs veh, DIAPH2 / RFU, SKA2 / Fold change vs veh, SKA2 / RFU, AFF3 / Fold change vs veh, AFF3 / RFU, LMF1 / Fold change vs veh, LMF1 / RFU, IPO11 / Fold change vs veh, IPO11 / RFU, DFFB / Fold change vs veh, DFFB / RFU, FOXP1 / Fold change vs veh, FOXP1 / RFU, CARD8 / Fold change vs veh, CARD8 / RFU, STRN3 / Fold change vs veh, STRN3 / RFU, ADK / Fold change vs veh, ADK / RFU, RASSF2 / Fold change vs veh, RASSF2 / RFU, WIPF1 / Fold change vs veh, WIPF1 / RFU, LARP1B / Fold change vs veh, LARP1B / RFU, RASA1 / Fold change vs veh, RASA1 / RFU, RB1 / Fold change vs veh, RB1 / RFU, PPFIA1 / Fold change vs veh, PPFIA1 / RFU, MAT2A / Fold change vs veh, MAT2A / RFU, CCT5 / Fold change vs veh, CCT5 / RFU, WDR92 / Fold change vs veh, WDR92 / RFU, CUX1 / Fold change vs veh, CUX1 / RFU, TTC7A / Fold change vs veh, TTC7A / RFU, TMEM135 / Fold change vs veh, TMEM135 / RFU, DEPTOR / Fold change vs veh, DEPTOR / RFU, CPM / Fold change vs veh, CPM / RFU, DNAJB6 / Fold change vs veh, DNAJB6 / RFU, CACNA2D3 / Fold change vs veh, CACNA2D3 / RFU, DTX4 / Fold change vs veh, DTX4 / RFU, TFCP2 / Fold change vs veh, TFCP2 / RFU, GMCL1 /// GMCL1P1 / Fold change vs veh, GMCL1 /// GMCL1P1 / RFU, AEBP2 / Fold change vs veh, AEBP2 / RFU, SNHG1 /// SNORD22 /// SNORD25 /// SNORD26 /// SNORD27 /// SNORD28 /// SNORD29 /// SNORD31 / Fold change vs veh, SNHG1 /// SNORD22 /// SNORD25 /// SNORD26 /// SNORD27 /// SNORD28 /// SNORD29 /// SNORD31 / Fold change (Aza/veh), C12orf56 (ProbeSet 11735607_a_at) / Fold change (ACY-1035/veh), C12orf56 (ProbeSet 11735607_a_at) / Fold change (Aza/veh), FGFR1OP (ProbeSet 11751329_s_at) / Fold change (ACY-1035/veh), FGFR1OP (ProbeSet 11751329_s_at) / Fold change (Aza/veh), VPS36 (ProbeSet 11739960_a_at) / Fold change (ACY-1035/veh), VPS36 (ProbeSet 11739960_a_at) / RFU SYPL1 (11715823_x_at) / Fold change /veh SYPL1 (11715823_x_at) / RFU IGFBP7 (11715501_s_at) / Fold change /veh IGFBP7 (11715501_s_at) / RFU REEP3 (11722064_at) / Fold change /veh REEP3 (11722064_at) / RFU IGLL1 (11728026_x_at) / Fold change /veh IGLL1 (11728026_x_at): dose or concentration left out as unconfirmed
# Settings: ProbeSet 11722022_s_at; LIST D
compound,measurement,value
Nc1ncn([C@@H]2O[C@H](CO)[C@@H](O)[C@H]2O)c(=O)n1 [azacitidine],"RFU, CDK5R1",40.46 RFU
